Measured values from US10118935B2, “Melampomagnolide B dimers” (priority 2014, dated 2018).
Read-outs that look alike come from different tables or passages of the source.

How the values were obtained:
HL-60(TB) = conditions: for CC50: read-out: LC50
M9ENL AML cell lines = conditions: read-out: LC50; M9ENL AML cell lines; after 24 hours of drug exposure
K-562 = test: NCI 60 cell line five dose, Leukemia; conditions: for CC50: read-out: LC50
SR = test: NCI 60 cell line five dose, Leukemia; conditions: for CC50: read-out: LC50
SK-MEL-2 = test: NCI 60 cell line five dose, Melanoma; conditions: for CC50: read-out: LC50
SF-268 = test: NCI 60 cell line five dose, CNS Cancer; conditions: for CC50: read-out: LC50
SF-295 = test: NCI 60 cell line five dose, CNS Cancer; conditions: for CC50: read-out: LC50
COLO 205 = test: NCI 60 cell line five dose, Colon Cancer; conditions: for CC50: read-out: LC50
RXF 393 = test: NCI 60 cell line five dose, Renal Cancer; conditions: for CC50: read-out: LC50
OVCAR-4 = test: NCI 60 cell line five dose, Ovarian Cancer; conditions: for CC50: read-out: LC50
NCI-H23 = test: NCI 60 cell line five dose, Non-Small Cell Lung Cancer; conditions: for CC50: read-out: LC50
NCI-H322M = test: as above
HOP-62 = test: as above; format: cell-based, human
IGROV1 = test: NCI 60 cell line five dose, Ovarian Cancer; format: cell-based, human
[1] = read-out: LC50 (the source's name)

Structure (SMILES): C=C1C(=O)O[C@H]2[C@H]1CC/C(COC(=O)NCCCCCNC(=O)OC/C1=C/CC[C@@]3(C)O[C@H]3[C@H]3OC(=O)C(=C)[C@@H]3CC1)=C\CC[C@@]1(C)O[C@@H]21 [JVM 2-76, bis(((1aR,7aS,10aS,10bS,E)-1a-Methyl-8-methylene-9-oxo-1a,2,3,6,7,7a,8,9,10a,10b-decahydrooxireno[2′,3′:9,10]cyclodeca[1,2-b]furan-5-yl)methyl)pentane-1,5-diyldicarbamate]
- GI50 (HL-60(TB)): 310 nM
- TGI (HL-60(TB)): 1.71 µM
- CC50 (HL-60(TB)): > 100 µM
- CC50 (M9ENL AML cell lines): 1350 nM
- GI50 (K-562): 560 nM
- TGI (K-562): 16.1 µM
- CC50 (K-562): > 100 µM
- GI50 (SR): 380 nM
- TGI (SR): 2.30 µM
- CC50 (SR): > 100 µM
- GI50 (SK-MEL-2): 2010 nM
- TGI (SK-MEL-2): 3.96 µM
- CC50 (SK-MEL-2): 7.81 µM
- GI50 (SF-268): 3.08 µM
- TGI (SF-268): 12.0 µM
- CC50 (SF-268): 42.3 µM
- GI50 (SF-295): 11.1 µM
- TGI (SF-295): 26.9 µM
- CC50 (SF-295): 65.2 µM
- GI50 (COLO 205): 520 nM
- TGI (COLO 205): 2.33 µM
- CC50 (COLO 205): 7.97 µM
- GI50 (RXF 393): 850 nM
- TGI (RXF 393): 2.43 µM
- CC50 (RXF 393): 6.35 µM
- GI50 (OVCAR-4): 2720 nM
- TGI (OVCAR-4): 15.2 µM
- CC50 (OVCAR-4): 41.9 µM
- GI50 (NCI-H23): 2660 nM
- TGI (NCI-H23): 7.71 µM
- CC50 (NCI-H23): 45.5 µM
- GI50 (NCI-H322M): 16.4 µM
- TGI (NCI-H322M): 41.6 µM

Structure (SMILES): C=C1C(=O)O[C@H]2[C@H]1CC/C(COC(=O)NCCCCNC(=O)OC/C1=C/CC[C@@]3(C)O[C@H]3[C@H]3OC(=O)C(=C)[C@@H]3CC1)=C\CC[C@@]1(C)O[C@@H]21 [JVM 3-54, bis(((1aR,7aS,10aS,10bS,E)-1a-Methyl-8-methylene-9-oxo-1a,2,3,6,7,7a,8,9,10a,10b-decahydrooxireno[2′,3′:9,10]cyclodeca[1,2-b]furan-5-yl)methyl)butane-1,4-diyldicarbamate]
- GI50 (HOP-62): 3.84 µM
- TGI (HOP-62): 14 µM
- Percent Growth (HOP-62; Log10 Concentration −4.0): −82%
- Percent Growth (HOP-62; Log10 Concentration −5.0): 14%
- Percent Growth (HOP-62; Log10 Concentration −6.0): 101%
- Percent Growth (HOP-62; Log10 Concentration −7.0): 95%
- Percent Growth (HOP-62; Log10 Concentration −8.0): 94%
- CC50 (HOP-62; [1]): 46.1 µM
- GI50 (IGROV1): 3.32 µM
- TGI (IGROV1): 12.4 µM
- Percent Growth (IGROV1; Log10 Concentration −4.0): −76%
- Percent Growth (IGROV1; Log10 Concentration −5.0): 8%
- Percent Growth (IGROV1; Log10 Concentration −6.0): 96%
- Percent Growth (IGROV1; Log10 Concentration −7.0): 104%
- Percent Growth (IGROV1; Log10 Concentration −8.0): 101%
- CC50 (IGROV1; [1]): 48.6 µM
- GI50 (HL-60(TB)): 256 nM
- TGI (HL-60(TB)): 1.08 µM
- Percent Growth (HL-60(TB); Log10 Concentration −4.0): −38%
- Percent Growth (HL-60(TB); Log10 Concentration −5.0): −41%
- Percent Growth (HL-60(TB); Log10 Concentration −6.0): 1%
- Percent Growth (HL-60(TB); Log10 Concentration −7.0): 84%
- Percent Growth (HL-60(TB); Log10 Concentration −8.0): 962%
- CC50 (HL-60(TB)): > 100 µM
- GI50 (K-562): 665 nM
- TGI (K-562): 10.4 µM
- Percent Growth (K-562; Log10 Concentration −4.0): −46%
- Percent Growth (K-562; Log10 Concentration −5.0): 1%
- Percent Growth (K-562; Log10 Concentration −6.0): 40%
- Percent Growth (K-562; Log10 Concentration −7.0): 96%
- Percent Growth (K-562; Log10 Concentration −8.0): 101%
- CC50 (K-562): > 100 µM
- GI50 (SR): 549 nM
- TGI (SR): 3.51 µM
- Percent Growth (SR; Log10 Concentration −4.0): −34%
- Percent Growth (SR; Log10 Concentration −5.0): −29%
- Percent Growth (SR; Log10 Concentration −6.0): 35%
- Percent Growth (SR; Log10 Concentration −7.0): 94%
- Percent Growth (SR; Log10 Concentration −8.0): 93%
- CC50 (SR): > 100 µM
- GI50 (SK-MEL-2): 1770 nM
- TGI (SK-MEL-2): 4.89 µM
- Percent Growth (SK-MEL-2; Log10 Concentration −4.0): −67%
- Percent Growth (SK-MEL-2; Log10 Concentration −5.0): −35%
- Percent Growth (SK-MEL-2; Log10 Concentration −6.0): 78%
- Percent Growth (SK-MEL-2; Log10 Concentration −7.0): 89%
- Percent Growth (SK-MEL-2; Log10 Concentration −8.0): 101%
- CC50 (SK-MEL-2): 29.3 µM
- GI50 (SF-268): 3.18 µM
- TGI (SF-268): 12.6 µM
- Percent Growth (SF-268; Log10 Concentration −4.0): −74%
- Percent Growth (SF-268; Log10 Concentration −5.0): 8%
- Percent Growth (SF-268; Log10 Concentration −6.0): 92%
- Percent Growth (SF-268; Log10 Concentration −7.0): 97%
- Percent Growth (SF-268; Log10 Concentration −8.0): 97%
- CC50 (SF-268): 51 µM
- GI50 (SF-295): 13 µM
- TGI (SF-295): 27.4 µM
- Percent Growth (SF-295; Log10 Concentration −4.0): −87%
- Percent Growth (SF-295; Log10 Concentration −5.0): 68%
- Percent Growth (SF-295; Log10 Concentration −6.0): 98%
- Percent Growth (SF-295; Log10 Concentration −7.0): 89%
- Percent Growth (SF-295; Log10 Concentration −8.0): 92%
- CC50 (SF-295): 57.7 µM
- GI50 (COLO 205): 466 nM
- TGI (COLO 205): 1.8 µM
- Percent Growth (COLO 205; Log10 Concentration −4.0): −61%
- Percent Growth (COLO 205; Log10 Concentration −5.0): −73%
- Percent Growth (COLO 205; Log10 Concentration −6.0): 25%
- Percent Growth (COLO 205; Log10 Concentration −7.0): 100%
- Percent Growth (COLO 205; Log10 Concentration −8.0): 100%
- CC50 (COLO 205): 5.79 µM
- GI50 (RXF 393): 1440 nM
- TGI (RXF 393): 3.36 µM
- Percent Growth (RXF 393; Log10 Concentration −4.0): −100%
- Percent Growth (RXF 393; Log10 Concentration −5.0): −64%
- Percent Growth (RXF 393; Log10 Concentration −6.0): 71%
- Percent Growth (RXF 393; Log10 Concentration −7.0): 95%
- Percent Growth (RXF 393; Log10 Concentration −8.0): 100%
- CC50 (RXF 393): 7.84 µM
- GI50 (OVCAR-4): 1770 nM
- Percent Growth (OVCAR-4; Log10 Concentration −4.0): −98%
- Percent Growth (OVCAR-4; Log10 Concentration −5.0): −5%
- Percent Growth (OVCAR-4; Log10 Concentration −6.0): 68%
- Percent Growth (OVCAR-4; Log10 Concentration −7.0): 82%
- Percent Growth (OVCAR-4; Log10 Concentration −8.0): 93%
- CC50 (OVCAR-4): 30.5 µM
- GI50 (NCI-H23): 2180 nM
- TGI (NCI-H23): 5.54 µM
- Percent Growth (NCI-H23; Log10 Concentration −4.0): −70%
- Percent Growth (NCI-H23; Log10 Concentration −5.0): 32%
- Percent Growth (NCI-H23; Log10 Concentration −6.0): 92%
- Percent Growth (NCI-H23; Log10 Concentration −7.0): 95%
- Percent Growth (NCI-H23; Log10 Concentration −8.0): 95%
- CC50 (NCI-H23): 30.4 µM
- GI50 (NCI-H322M): 12.6 µM
- TGI (NCI-H322M): 25.8 µM
- Percent Growth (NCI-H322M; Log10 Concentration −4.0): −94%
- Percent Growth (NCI-H322M; Log10 Concentration −5.0): 66%
- Percent Growth (NCI-H322M; Log10 Concentration −6.0): 104%
- Percent Growth (NCI-H322M; Log10 Concentration −7.0): 100%
- Percent Growth (NCI-H322M; Log10 Concentration −8.0): 100%
- CC50 (NCI-H322M; read-out: LC50): 52.9 µM
